Source: PMC4805251, “Novel Antimicrobial Peptides EeCentrocins 1, 2 and EeStrongylocin 2 from the Edible Sea Urchin Echinus esculentus Have 6-Br-Trp Post-Translational Modifications” (PLoS ONE, 2016)
Where two headings read alike, the source gives them in different places. Ends that are not written are not given here.

Key:
Type in all cases: cell-based
[1] = tested on: human red blood cells; experiment: Haemolytic activity assay
Method: Synthesised peptide analogues of EeCentrocin 1 and 2 were screened for eukaryotic cell-toxicity with a haemolytic activity assay using human red blood cells as described previously. The assay was performed on 96-well U-shaped microtiter plates (Nagle Nunc) with 50 μl peptide sample, 40 μl phosphate-buffered saline (PBS) and 10 μl red blood cells. The final peptide concentrations ranged from 100 to 0.1 μM in two-fold serial dilutions. After one hour of incubation at 37°C in a shaker, the plate was centrifuged at 200 g for 5 min and the supernatants (60 μl) were carefully transferred to a new flat-bottomed polycarbonate microtiter plate (Nagle Nunc) and absorbance at 550 nm was measured on a Synergy H1 multimode reader (BioTek, VT, USA). Cell suspension added 0.05% Triton X-100 (Sigma-Aldrich, MO, USA) in PBS served as positive (100% haemolysis) control and cell suspension added PBS served as negative (0% haemolysis) control. The percent haemolysis was calculated using the formula [(Asample-Abaseline)/(Atriton-Abaseline)]×100. The experiment was performed in duplicates.

[2] = tested on: Candida albicans (ATCC 10231)
Method: (§1) The synthetic peptides (see section 2.11) were also screened for antifungal activity against Candida albicans (ATCC 10231), Saccharomyces cerevisiae, Rhodotorula sp., Aureobasidium pullulans and Cladosporium sp. The antifungal assay was performed as described previously. Briefly, fungal spores were dissolved in potato dextrose broth (Difco, Lawrence, KS, USA) to a concentration of 4 × 10^5 spores/ml. The spores (50 μl) were inoculated on 96-well Nunclon^TM microtiter plates containing the synthetic peptides (50 μl) dissolved in MQ-H2O. […] MIC was defined as the lowest concentration of peptide giving no visible fungal growth. The negative (growth) control contained medium and fungal solution.
(§2) ACN-phases and SPE eluates were tested with two-fold serial dilutions ranging from 5.0 to 0.005 mg/ml (5.0, 2.5, 1.25, 0.63, 0.31, 0.16, 0.08, 0.04, 0.02, 0.01, 0.005 mg/ml) whereas HPLC-fractions were tested undiluted for antibacterial activity. Pure, native peptides and synthetic peptides (described in section 2.11) were tested for antimicrobial activity in concentrations ranging from 100 to 0.1 μM in two-fold serial dilutions (100, 50, 25, 12.5, 6.25, 3.13, 1.56, 0.78, 0.39, 0.20, 0.10 μM). Antimicrobial assays involving natural peptides (i.e. fractionated natural material) were run only once due to limited quantities, whereas all other assays were run in triplicates.

[3] = tested on: Saccharomyces cerevisiae
Method: as §1, §2

[4] = tested on: Rhodotorula sp.
Method: as §1, §2

[5] = tested on: Aureobasidium pullulans
Method: as §1, §2

[6] = tested on: Cladosporium sp.
Method: as §1, §2

[7] = tested on: Gram-positive and Gram-negative bacteria (tested strains); settings: 24 h
From the text: Organic phase extract, SPE eluates and HPLC-fractions were screened for antibacterial activity against two strains of Gram-positive and two strains of Gram-negative bacteria; Corynebacterium glutamicum (ATCC 13032), Staphylococcus aureus (ATCC 9144), Pseudomonas aeruginosa #1 (ATCC 27853) and Escherichia coli #1 (ATCC 25922). For extended antimicrobial bioactivity screening, the following bacterial strains were used, three strains of Gram-positive bacteria; S. epidermidis #1 (5179-R1) kindly provided by Holger Rohde, S. epidermidis #2, RP62A (ATCC 35984) and Bacillus subtilis (ATCC 23857) in addition to the Gram-negative P. aeruginosa #2, PA 01 (ATCC 15692, DSM 19880) and E. coli #2, NR 698 (MC4100/ptD4213). […]
The test plates were incubated for 24 h at 35°C with optical density (OD595) recorded every hour using an Envision 2103 multilabel reader, controlled by the Wallac Envision manager (PerkinElmer, CT, USA). […]
ACN-phases and SPE eluates were tested with two-fold serial dilutions ranging from 5.0 to 0.005 mg/ml (5.0, 2.5, 1.25, 0.63, 0.31, 0.16, 0.08, 0.04, 0.02, 0.01, 0.005 mg/ml) whereas HPLC-fractions were tested undiluted for antibacterial activity. […] Antimicrobial assays involving natural peptides (i.e. fractionated natural material) were run only once due to limited quantities, whereas all other assays were run in triplicates.

[8] = tested on: S. epidermidis #2, RP62A (ATCC 35984)
From the text: (§3) Organic phase extract, SPE eluates and HPLC-fractions were screened for antibacterial activity against two strains of Gram-positive and two strains of Gram-negative bacteria; Corynebacterium glutamicum (ATCC 13032), Staphylococcus aureus (ATCC 9144), Pseudomonas aeruginosa #1 (ATCC 27853) and Escherichia coli #1 (ATCC 25922). For extended antimicrobial bioactivity screening, the following bacterial strains were used, three strains of Gram-positive bacteria; S. epidermidis #1 (5179-R1) kindly provided by Holger Rohde, S. epidermidis #2, RP62A (ATCC 35984) and Bacillus subtilis (ATCC 23857) in addition to the Gram-negative P. aeruginosa #2, PA 01 (ATCC 15692, DSM 19880) and E. coli #2, NR 698 (MC4100/ptD4213).
(§4) Cultures stored at -80°C were smeared onto agar plates and cultured for 24 h at 35°C. One colony of each bacterial strain was transferred to 5 ml liquid Müller-Hinton (MH, Difco, Lawrence, KS, USA) medium in a glass tube and left shaking at room temperature overnight at 600 rpm. The cultures of actively growing bacteria (20 μl) were further inoculated in 5 ml MH medium and left shaking for 2 h at room temperature. The antibacterial assays were performed as previously described by. Briefly, the bacterial cultures were diluted with medium to 1.3–1.5 × 10^4 bacteria/ml final concentrations and an aliquot of 50 μl was added to each well in 96-well Nunclon^TM microtiter plates (Nagle Nunc Int., Denmark) preloaded with 50 μl test sample solutions, i.e. extracts, eluates or peptides.
(§5) The test plates were incubated for 24 h at 35°C with optical density (OD595) recorded every hour using an Envision 2103 multilabel reader, controlled by the Wallac Envision manager (PerkinElmer, CT, USA). Antibacterial activity was defined as a sample showing >90% inhibition (as measured by optical density) compared to the negative (growth) controls, consisting of bacteria and water. Oxytetracycline (20 μM) served as a positive (inhibition) control. The minimum inhibitory concentration (MIC) was defined as the lowest concentration of a sample displaying >90% inhibition.
as §2

[9] = tested on: Pseudomonas aeruginosa #1 (ATCC 27853)
From the text: as §3, §4, §5, §2

[10] = tested on: Escherichia coli #1 (ATCC 25922)
From the text: as §3, §4, §5, §2

[11] = tested on: Staphylococcus aureus (ATCC 9144)
From the text: as §3, §4, §5, §2

[12] = tested on: Corynebacterium glutamicum (ATCC 13032)
From the text: as §3, §4, §5, §2

[13] = tested on: E. coli #2, NR 698 (MC4100/ptD4213)
From the text: as §3, §4, §5, §2

[14] = tested on: P. aeruginosa #2, PA 01 (ATCC 15692, DSM 19880)
From the text: as §3, §4, §5, §2

[15] = tested on: S. epidermidis #1 (5179-R1)
From the text: as §3, §4, §5, §2

[16] = tested on: Bacillus subtilis (ATCC 23857)
From the text: as §3, §4, §5, §2

## Triton X-100 [Lysis (0.05% Triton X-100), reference compound]
[1]
  Absorbance at 550nm, lysis control: 0.24

## GWWRRTVDKVRNAGRKVAGFASKACGALGH [EeCentrocin 1 HC]
[2]; ATCC 10231, 24 h
  MIC C. albicans: 100 µM
[2]; parallel 1 of three
  MIC raw data C. albicans: 100 µM
[2]; parallel 2 of three
  MIC raw data C. albicans: 100 µM
[2]; parallel 3 of three
  MIC raw data C. albicans: 100 µM
[3]; 24 h
  MIC S. cerevisiae: 50 µM
[3]; parallel 1 of three
  MIC raw data S. cerevisiae: 50 µM
[3]; parallel 2 of three
  MIC raw data S. cerevisiae: 50 µM
[3]; parallel 3 of three
  MIC raw data S. cerevisiae: 50 µM
[4]; parallel 1 of three
  MIC raw data Rhodotorula sp.: 12.5 µM
[4]; parallel 2 of three
  MIC raw data Rhodotorula sp.: 12.5 µM
[4]; parallel 3 of three
  MIC raw data Rhodotorula sp.: 12.5 µM
[4]; potato dextrose broth, 24 h at room temperature, visual, no visible fungal growth, value of Table 2, triplicates
  MIC Rhodotorula sp.: 12.5 µM
[5]; 24 h
  MIC A. pullulans: 12.5 µM
[5]; parallel 1 of three
  MIC raw data A. pullulans: 12.5 µM
[5]; parallel 2 of three
  MIC raw data A. pullulans: 12.5 µM
[5]; parallel 3 of three
  MIC raw data A. pullulans: 12.5 µM
[6]; 24 h
  MIC Cladosporium sp.: >100 µM
[6]; parallel 1 of three
  MIC raw data Cladosporium sp.: >100 µM
[6]; parallel 2 of three
  MIC raw data Cladosporium sp.: >100 µM
[6]; parallel 3 of three
  MIC raw data Cladosporium sp.: >100 µM
[7]
  MIC range towards bacteria: 0.39 to 6.25 µM
[8]; ATCC 35984, 24 h
  MIC S. epidermidis #2: 3.13 µM
[8]; parallel 1 of three
  MIC raw data S. epidermidis #2: 3.13 µM
[8]; parallel 2 of three
  MIC raw data S. epidermidis #2: 3.13 µM
[8]; parallel 3 of three
  MIC raw data S. epidermidis #2: 3.13 µM
[9]; MH medium, 24 h at 35°C, OD595, >90% inhibition, value of Table 2, native peptides run once, synthetic in triplicates
  MIC P. aeruginosa #1: 1.56 µM
[9]; parallel 1 of three
  MIC raw data P. aeruginosa #1: 1.56 µM
[9]; parallel 2 of three
  MIC raw data P. aeruginosa #1: 1.56 µM
[9]; parallel 3 of three
  MIC raw data P. aeruginosa #1: 1.56 µM
[10]; ATCC 25922, 24 h
  MIC E. coli #1: 0.78 µM
[10]; parallel 1 of three
  MIC raw data E. coli #1: 0.78 µM
[10]; parallel 2 of three
  MIC raw data E. coli #1: 0.78 µM
[10]; parallel 3 of three
  MIC raw data E. coli #1: 0.78 µM
[11]; ATCC 9144, 24 h
  MIC S. aureus: 3.13 µM
[11]; parallel 1 of three
  MIC raw data S. aureus: 3.13 µM
[11]; parallel 2 of three
  MIC raw data S. aureus: 3.13 µM
[11]; parallel 3 of three
  MIC raw data S. aureus: 3.13 µM
[12]; ATCC 13032, 24 h
  MIC C. glutamicum: 0.39 µM
[12]; parallel 1 of three
  MIC raw data C. glutamicum: 0.39 µM
[12]; parallel 2 of three
  MIC raw data C. glutamicum: 0.39 µM
[12]; parallel 3 of three
  MIC raw data C. glutamicum: 0.39 µM
[13]; MH medium, 24 h at 35°C, OD595, >90% inhibition, value of Table 2, triplicates
  MIC E. coli #2: 1.56 µM
[13]; parallel 1 of three
  MIC raw data E. coli #2: 1.56 µM
[13]; parallel 2 of three
  MIC raw data E. coli #2: 1.56 µM
[13]; parallel 3 of three
  MIC raw data E. coli #2: 1.56 µM
[14]; ATCC 15692, 24 h
  MIC P. aeruginosa #2: 3.13 µM
[14]; parallel 1 of three
  MIC raw data P. aeruginosa #2: 3.13 µM
[14]; parallel 2 of three
  MIC raw data P. aeruginosa #2: 3.13 µM
[14]; parallel 3 of three
  MIC raw data P. aeruginosa #2: 3.13 µM
[15]; #1 (5179-R1, 24 h)
  MIC S. epidermidis #1: 6.25 µM
[15]; parallel 1 of three
  MIC raw data S. epidermidis #1: 6.25 µM
[15]; parallel 2 of three
  MIC raw data S. epidermidis #1: 6.25 µM
[15]; parallel 3 of three
  MIC raw data S. epidermidis #1: 6.25 µM
[16]; MH medium, 24 h at 35°C, OD595, lowest concentration with >90% inhibition, value of Table 2, synthetic peptides in triplicates
  MIC B. subtilis: 1.56 µM
[16]; parallel 1 of three
  MIC raw data B. subtilis: 1.56 µM
[16]; parallel 2 of three
  MIC raw data B. subtilis: 1.56 µM
[16]; parallel 3 of three
  MIC raw data B. subtilis: 0.78 µM
